Values of other authors, collected in US20220395522A1, “Methods of Use of Glucosamine for Increasing Nitrogen Retention” (TSI Bioproducts (Xuzhou) Co., Ltd., priority 2021, published 2022).

Details: cited from earlier work

SMILES: N[C@H]1C(O)O[C@H](CO)[C@@H](O)[C@@H]1O (some centres unmarked) [glucosamine]
- Ingested glucosamine absorbed (human digestive tract): 10-12%
- Ingested glucosamine metabolized by members of the intestinal microbiota before it is absorbed (in vivo): more than 50%
